Assays:
As #128 = experiment: RIA (Assay 2): competition with iodinated inhibin for As #128; type: binding, sheep
In short: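 Graded doses of peptide or hr-inhibin standard competed with iodinated human recombinant 30 kDa inhibin tracer for the sheep antiserum at a set dilution, overnight at 4°C. Bound tracer was precipitated with goat anti-sheep IgG and gamma-counted. ED50 is the dose producing 50% loss of tracer binding.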

As #41 = experiment: Two-site assay design variation: biotinylated #41 pre-incubated with peptide; type: binding, sheep; settings: non-biotinylated peptides 0.1-1.0 micromolar
Protocol: (iv) In a variation to the above design, biotinylated #41 was pre-incubated with peptide (0.1-1.0 micromolar) for 1.5 hours at room temperature and then added to the As #128 coated plate pre-bound with inhibin as for (i)-(iii). […] Combination of peptide #5 and #30 led to 74% decrease.

R1 = experiment: Solid phase binding of Set 2 peptides to R1; parameters: species or system mouse; key: +++; ΦΦΦ strong effect; +, Φ weak effect; settings: Set 2 biotinylated peptides 24 micromoles/L
Protocol: (§1) The binding of the 41 biotinylated peptides as set forth in Table 7 (peptide set 2) to the mouse monoclonal antibodies (PO# series) was assessed as follows:
(§2) a) Assay 1 (solid phase assay). The assay was undertaken as outlined in assay 1 of Example 2. Biotinylated peptides (24 micromoles/L) were initially bound to streptavidin-coated plates. Mab (at an appropriate dilution to give a detectable response, 1:1000, 1:10000 dilution of the culture medium) was then added and incubated for 1.5 hr. The amount of bound Mab was determined using horseradish peroxidase-bound anti-mouse IgG serum and enzyme activity detected at 450-630 nm using an ELISA plate reader.

PO-6 = experiment: Solid phase binding of Set 2 peptides to PO-6; parameters: species or system mouse; key: +++; ΦΦΦ strong effect; +, Φ weak effect; settings: Set 2 biotinylated peptides 24 micromoles/L
Protocol: as §1, §2

PO-22 = experiment: Solid phase binding of Set 2 peptides to PO-22; parameters: species or system mouse; key: +++; ΦΦΦ strong effect; +, Φ weak effect; settings: Set 2 biotinylated peptides 24 micromoles/L
Protocol: as §1, §2

- R1 SPB (R1): +
- PO-6 SPB (PO-6): +++
- PO-22 SPB (PO-22): +++
Substance: SGSG WSPSALRLLQRPPE [Peptide 5]
- As#128 ED50 (As #128; biotinylated peptides, 50% fall in binding of iodinated inhibin): 3.8 µM
- ED50 values As#128 (As #128; non-biotinylated peptides, hr-inhibin A as standard): >10 µM
- inhibition with biotinylated #41 pre-incubated with peptide (As #41): 50%
